As a reminder, the IC50 is the concentration that gives 50% inhibition.

The structures appear in SMILES notation.

Sequence of full-length recombinant human FYN A (P06241 whole entry): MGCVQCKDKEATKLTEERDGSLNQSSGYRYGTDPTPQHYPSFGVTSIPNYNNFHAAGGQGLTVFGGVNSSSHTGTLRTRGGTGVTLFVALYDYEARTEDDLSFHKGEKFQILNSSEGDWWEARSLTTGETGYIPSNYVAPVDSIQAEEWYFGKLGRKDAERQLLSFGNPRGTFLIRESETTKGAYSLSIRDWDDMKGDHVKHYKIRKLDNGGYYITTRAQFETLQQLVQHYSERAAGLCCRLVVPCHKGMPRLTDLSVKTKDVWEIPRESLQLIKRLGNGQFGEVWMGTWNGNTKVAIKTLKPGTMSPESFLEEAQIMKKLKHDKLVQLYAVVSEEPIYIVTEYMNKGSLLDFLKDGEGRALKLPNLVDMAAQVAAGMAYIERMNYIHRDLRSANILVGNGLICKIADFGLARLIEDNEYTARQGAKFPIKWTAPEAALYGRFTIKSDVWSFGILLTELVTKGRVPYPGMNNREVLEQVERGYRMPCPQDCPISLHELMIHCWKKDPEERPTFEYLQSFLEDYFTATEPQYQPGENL

The assay addresses full-length recombinant human FYN A (Homo sapiens (Human), UniProt P06241). The assay can be described thus: ADP-Glo Kinase Assay of FYN kinase inhibition. In kind it is biochemical. The following applies: primary screen, initial compounds. In a few lines: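 ADP-Glo read-out of peptide phosphorylation after 90 min RT with 12.5 pmol ATP and 100 pg 12-mer substrate. Enzyme was N-GST full-length human FYN A from insect cells, 3 pg, pre-incubated 30 min with compound, 10 points from 10 μM top, 3-fold steps; IC50 from curve.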
With `CNc1ccc2ncc(-c3ccc(OC)cc3)n2n1` [Compound 437_0280, 3-(4-methoxyphenyl)-N-methyl-imidazo[1,2-b]pyridazin-6-amine], the 50% inhibitory concentration (IC50) stood at 4160 nM.

Regarding `CNc1ccc2ncc(-c3cccc(O)c3)n2n1` [Compound 437_0284, 3-[6-(methyl-amino)imidazo[1,2-b]pyridazin-3-yl]phenol], the IC50 was 2180 nM.

For the molecule `CNc1ccc2ncc(-c3ccc(OC)nc3)n2n1` [Compound 437_0311, 3-(6-methoxy-3-pyridyl)-N-methyl-imidazo[1,2-b]pyridazin-6-amine], the IC50 came to 4460 nM.

With `CNc1ccc2ncc(-c3ccc(F)cc3)n2n1` [Compound 437_0339, 3-(4-fluoro-phenyl)-N-methyl-imidazo[1,2-b]pyridazin-6-amine], the IC50 came out at 3260 nM.

As to `CNc1ccc2ncc(-c3ccccc3O)n2n1` [Compound 437_0340, 2-[6-(methylamino)imidazo[1,2-b]pyridazin-3-yl]phenol], the IC50 is 1130 nM.

Take `CNc1ccc2ncc(-c3cccc(C(=O)N(C)C)c3)n2n1` [Compound 437_0349, N,N-dimethyl-3-[6-(methylamino)imidazo[1,2-b]pyridazin-3-yl]benzamide]: the 50% inhibitory concentration (IC50) turned out to be 2940 nM.

Take `CNc1ccc2ncc(-c3cnn(C)c3)n2n1` [Compound 437_7468, N-methyl-3-(1-methylpyrazol-4-yl)imidazo[1,2-b]pyridazin-6-amine]: the IC50 was determined as 5630 nM.

In the case of `CN(C)CCNC(=O)c1cccc(-c2ccc3ncc(-c4cccs4)n3n2)c1` [Compound 438, N-(2-dimethyl-aminoethyl)-3-[3-(2-thienyl)imidazo[1,2-b]pyridazin-6-yl]benzamide], the IC50 amounted to 1160 nM.

Turning to `c1ccc(-c2ccc3ncc(-c4ccc5c(c4)OCO5)n3n2)cc1` [Compound 439, 3-(1,3-benzodioxol-5-yl)-6-phenyl-imidazo[1,2-b]pyridazine], the IC50 came out at 3090 nM.

Regarding `Oc1cccc(-c2ccc3ncc(-c4cccnc4)n3n2)c1` [Compound 440, 3-[3-(3-pyridyl)imidazo [1,2-b]pyridazin-6-yl]phenol], the IC50 is 1810 nM.

For the molecule `COc1ccc(-c2cnc3ccc(-c4cccs4)nn23)cc1OC` [Compound 441, 3-(3,4-dimethoxy-phenyl)-6-(2-thienyl)imidazo [1,2-b]pyridazine], the IC50 is 211 nM.

As to `Oc1cccc(-c2ccc3ncc(-c4cccc(O)c4)n3n2)c1` [Compound 442, 3-[3-(3-hydroxyphenyl)imidazo[1,2-b]pyridazin-6-yl]phenol], the IC50 stood at 987 nM.

Turning to `CC(=O)Nc1cccc(-c2ccc3ncc(-c4ccc(CO)cc4)n3n2)c1` [Compound 443, N-[3-[3-[4-(hydroxymethyl)phenyl]imidazo [1,2-b]pyridazin-6-yl]phenyl] acetamide], the IC50 is 2240 nM.

For the molecule `CC(=O)c1cccc(-c2cnc3ccc(-c4ccc(F)cc4)nn23)c1` [Compound 444, 1-[3-[6-(4-fluorophenyl)imidazo[1,2-b]pyridazin-3-yl]phenyl] ethanone], the 50% inhibitory concentration (IC50) worked out at 4810 nM.

Consider `CNC(=O)c1cccc(-c2ccc3ncc(-c4cccc(NC(C)=O)c4)n3n2)c1` [Compound 445, 3-[3-(3-acetamido-phenyl)imidazo [1,2-b]pyridazin-6-yl]-N-methyl-benzamide], for which the IC50 came to 1330 nM.

As to `CNc1cncc(-c2ccc3[nH]ccc3c2)n1` [Compound 445_0204, 6-(1H-indol-5-yl)-N-methyl-pyrazin-2-amine], the 50% inhibitory concentration (IC50) is 14900 nM.

For `OCc1cccc(-c2ccc3ncc(-c4ccccc4)n3n2)c1` [Compound 446, [3-(3-phenylimidazo [1,2-b]pyridazin-6-yl)phenyl] methanol], the concentration for half-maximal inhibition (IC50) is 1930 nM.

In the case of `Cn1cc(-c2ccc3ncc(-c4ccncc4)n3n2)cn1` [Compound 447, 6-(1-methylpyrazol-4-yl)-3-(4-pyridyl)imidazo [1,2-b]pyridazine], the half-maximal inhibitory concentration (IC50) was 30000 nM.

Consider `CN(C)CCNC(=O)c1cccc(-c2ccc3ncc(-c4cccc(OC(F)(F)F)c4)n3n2)c1` [Compound 448, N-(2-dimethylamino-ethyl)-3-[3-[3-(trifluoromethoxy)phenyl]imidazo [1,2-b]pyridazin-6-yl]benzamide], for which the IC50 was determined as 3930 nM.

With `OCc1ccc(-c2ccc3ncc(-c4ccc(CO)cc4)n3n2)cc1` [Compound 449, [4-[3-[4-(hydroxymethyl)phenyl]imidazo [1,2-b]pyridazin-6-yl]phenyl] methanol], the IC50 came out at 1040 nM.

Take `COc1cc(-c2cnc3ccc(-c4ccc5c(c4)OCO5)nn23)ccc1O` [Compound 450, 4-[6-(1,3-benzodioxol-5-yl)imidazo[1,2-b]pyridazin-3-yl]-2-methoxy-phenol]: the IC50 was found to be 200 nM.

For the molecule `CC(=O)c1cccc(-c2cnc3ccc(-c4cccs4)nn23)c1` [Compound 451, 1-[3-[6-(2-thienyl)imidazo [1,2-b]pyridazin-3-yl]phenyl] ethanone], the 50% inhibitory concentration (IC50) came to 416 nM.

Regarding `COc1cncc(-c2ccc3ncc(-c4cccs4)n3n2)c1` [Compound 452, 6-(5-methoxy-3-pyridyl)-3-(2-thienyl)imidazo [1,2-b]pyridazine], the IC50 amounted to 2860 nM.

Regarding `c1csc(-c2ccc3ncc(-c4cccs4)n3n2)c1` [Compound 453, 3,6-bis(2-thienyl)imidazo [1,2-b]pyridazine], the half-inhibitory concentration (IC50) was determined as 4890 nM.

Consider `CN(C)CCNC(=O)c1cccc(-c2cnc3ccc(-c4cnn(C)c4)nn23)c1` [Compound 454, N-(2-dimethyl-aminoethyl)-3-[6-(1-methyl-pyrazol-4-yl)imidazo[1,2-b]pyridazin-3-yl]benzamide], for which the IC50 came out at 1760 nM.

For the molecule `CN(C)CCNC(=O)c1cccc(-c2cnc3ccc(-c4ccc5c(c4)OCO5)nn23)c1` [Compound 455, 3-[6-(1,3-benzodioxol-5-yl)imidazo[1,2-b]pyridazin-3-yl]-N-(2-dimethylamino-ethyl)benzamide], the IC50 is 2020 nM.

Regarding `CN(C)CCNC(=O)c1cccc(-c2cnc3ccc(-c4cccc(C(N)=O)c4)nn23)c1` [Compound 456, 3-[3-[3-(2-dimethylamino-ethylcarbamoyl)phenyl]imidazo [1,2-b]pyridazin-6-yl]benzamide], the IC50 was found to be 4150 nM.

For the molecule `O=C(NCCO)c1cccc(-c2ccc3ncc(-c4cccc(O)c4)n3n2)c1` [Compound 457, N-(2-hydroxyethyl)-3-[3-(3-hydroxyphenyl)imidazo[1,2-b]pyridazin-6-yl]benzamide], the half-maximal inhibitory concentration (IC50) was determined as 352 nM.

In the case of `COc1cc(-c2cnc3ccc(-c4cc(OC)c(OC)c(OC)c4)nn23)ccc1O` [Compound 458, 2-methoxy-4-[6-(3,4,5-trimethoxyphenyl)imidazo[1,2-b]pyridazin-3-yl]phenol], the IC50 came out at 1810 nM.

As to `OCc1cccc(-c2ccc3ncc(-c4ccoc4)n3n2)c1` [Compound 459, [3-[3-(3-furyl)imidazo[1,2-b]pyridazin-6-yl]phenyl] methanol], the IC50 is 7330 nM.

Take `NC(=O)c1ccc(-c2cnc3ccc(Cc4ccccc4)nn23)cc1` [Compound 460, 4-(6-benzylimidazo [1,2-b]pyridazin-3-yl)benzamide]: the IC50 was determined as 711 nM.

As for `CC(=O)Nc1ccc(-c2ccc3ncc(-c4cccc(C(=O)NCCN(C)C)c4)n3n2)cc1` [Compound 461, 3-[6-(4-acetamidophenyl)imidazo[1,2-b]pyridazin-3-yl]-N-(2-dimethylamino-ethyl)benzamide], the 50% inhibitory concentration (IC50) came to 983 nM.

Take `COc1cc(-c2cnc3ccc(-c4cccc(OC(F)(F)F)c4)nn23)ccc1O` [Compound 462, 2-methoxy-4-[6-[3-(trifluoro-methoxy)phenyl]imidazo[1,2-b]pyridazin-3-yl]phenol]: the IC50 was determined as 835 nM.

With `CN(C)CCNC(=O)c1cccc(-c2cnc3ccc(-c4cccc(CO)c4)nn23)c1` [Compound 463, N-(2-dimethylamino-ethyl)-3-[6-[3-(hydroxymethyl)phenyl]imidazo [1,2-b]pyridazin-3-yl]benzamide], the concentration for half-maximal inhibition (IC50) turned out to be 816 nM.

As for `NC(=O)c1ccc(-c2cnc3ccc(Cc4ccc(F)c(F)c4)nn23)cc1` [Compound 464, 4-[6-[(3,4-difluorophenyl)methyl]imidazo [1,2-b]pyridazin-3-yl]benzamide], the 50% inhibitory concentration (IC50) stood at 3070 nM.

Consider `CC(=O)Nc1cccc(-c2ccc3ncc(-c4cccc(C(=O)NCCN(C)C)c4)n3n2)c1` [Compound 465, 3-[6-(3-acetamidophenyl)imidazo[1,2-b]pyridazin-3-yl]-N-(2-dimethylamino-ethyl)benzamide], for which the IC50 turned out to be 3170 nM.

As for `COc1cc(-c2cnc3ccc(-c4cccc(C(F)(F)F)c4)nn23)ccc1O` [Compound 466, 2-methoxy-4-[6-[3-(trifluoro-methyl)phenyl]imidazo[1,2-b]pyridazin-3-yl]phenol], the half-inhibitory concentration (IC50) amounted to 1080 nM.

Regarding `COc1cncc(-c2cnc3ccc(Cc4ccccc4)nn23)c1` [Compound 467, 6-benzyl-3-(5-methoxy-3-pyridyl)imidazo [1,2-b]pyridazine], the 50% inhibitory concentration (IC50) came out at 2670 nM.

Consider `Cc1cccc(Cc2ccc3ncc(-c4ccc(C(N)=O)cc4)n3n2)c1` [Compound 468, 4-[6-(m-tolylmethyl)imidazo[1,2-b]pyridazin-3-yl]benzamide], for which the half-maximal inhibitory concentration (IC50) turned out to be 3100 nM.

Take `COc1ccccc1-c1ccc2ncc(-c3cccc(C(=O)NCCN(C)C)c3)n2n1` [Compound 469, N-(2-dimethylamino-ethyl)-3-[6-(2-methoxyphenyl)imidazo[1,2-b]pyridazin-3-yl]benzamide]: the 50% inhibitory concentration (IC50) turned out to be 2140 nM.

As to `CN(C)CCNC(=O)c1cccc(-c2cnc3ccc(-c4cccc(Oc5ccccc5)c4)nn23)c1` [Compound 470, N-(2-dimethylamino-ethyl)-3-[6-(3-phenoxyphenyl)imidazo[1,2-b]pyridazin-3-yl]benzamide], the IC50 amounted to 19200 nM.

`Oc1cccc(-c2cnc3ccc(C4CC4)nn23)c1` [Compound 471, 3-(6-cyclo-propylimidazo[1,2-b]pyridazin-3-yl)phenol]: the IC50 was found to be 1890 nM.

For `COc1cc(-c2cnc3ccc(-c4cccc(F)c4)nn23)ccc1O` [Compound 472, 4-[6-(3-fluoro-phenyl)imidazo [1,2-b]pyridazin-3-yl]-2-methoxy-phenol], the IC50 stood at 281 nM.

For the origin of these results see patent US10688093B2, “Methods, compositions, and uses of novel Fyn kinase inhibitors” (priority 2015, dated 2020).
